# Paper PMC10216263, “Favorable Preclinical Pharmacological Profile of a Novel Antimalarial Pyrrolizidinylmethyl Derivative of 4-amino-7-chloroquinoline with Potent In Vitro and In Vivo Activities” (Biomolecules, 2023)
# Read-outs that look alike come from different tables or passages of the source.
# Key:
# [1] = system: Salmonella typhimurium TA98; assay: Bacterial Reverse Mutation Assay; settings: Positive Control 1.25 g/plate, TA 98, with metabolic activation
# Procedure: (§8) using the preincubation method (30 min, 37°C) with and without phenobarbital-5,6-benzoflavone induced
# (§9) MG3 was dissolved in distilled water (H2O) at
# (§10) the maximum concentration of 40 mg/mL and tested in a preliminary range-finding test in all strains of
# (§11) metabolic activation to determine the toxicity of the compound.
# [2] = system: Salmonella typhimurium TA100; assay: Bacterial Reverse Mutation Assay; settings: Positive Control 1.25 µg/plate, TA 100, with metabolic activation
# Procedure: as §8, §9, §10, §11
# [3] = system: Escherichia coli WP2 uvrA; assay: Bacterial Reverse Mutation Assay; settings: Positive Control 5 µg/plate, with metabolic activation
# Procedure: as §8, §9, §10, §11
# [4] = system: Pf-3D7 gametocytes >95% Stage I-III; assay: Gametocyte luciferase assay (3D7elo1-pfs16-CBG99); type: cell-based, P. falciparum; settings: Plasmodium falciparum
# Procedure: (§1) In vitro activity of MG3 against P falciparum sexual gametocyte stages […]
# (§2) luminescent transgenic 3D7 strain (3D7elo1-pfs16-CBG99) at two different stages (I-III and V) using the […]
# (§3) Briefly, 100 µL of culture medium were removed from each well to increase hematocrit; 70 µL of resuspended culture were transferred to a black 96-well plate; 70 µL of D-luciferin (1 mM in citrate buffer 0.1 M, pH 5.5) were added. Luminescence measurements were performed after 10 min with 500 ms integration time using a Synergy4-BioTek reader.
# (§4) (1 picture or pasted object on this page, not shown here)
# [5] = system: Pf-3D7 gametocytes >95% Stage V; assay: Gametocyte luciferase assay (3D7elo1-pfs16-CBG99); type: cell-based, P. falciparum; settings: Plasmodium falciparum, 3D7, read-out: Pf-3D7 gametocytes IC50 (nM), >95% Stage V
# Procedure: as §1, §2, §3, §4
# [6] = system: P. falciparum IPC5202 (ARM-R); assay: microbe, parasite or virus in culture; type: cell-based; settings: Plasmodium falciparum, 72 h
# Procedure: The strains D10 and 3D7 (CQ-Sensitive), and V1-S (CQ, pyrimethamine and cycloguanil resistant), K1 (CQ and PYR resistant), W2 and FCR3 (CQ-Resistant), TM90C2A (CQ, MQ, PYR and ATQ resistant) and IPC 5202 (MR4-1240, artemisinin-resistant, K13 mutation, and R539T) of Pf were cultured in vitro as described by Trager and Jensen with minor modifications. Briefly, parasites were maintained at 5% hematocrit (human type A-positive red blood cells) in RPMI 1640 (EuroClone, S.p.A. Milan, Italy) medium with the addition of 10% heat inactivate human serum or 1% AlbuMax (In vitrogen, Milan, Italy), 20 mM Hepes and 2 mM glutamine (Euroclone), at 37 °C in a standard gas mixture consisting of 1–3% O2, 5% CO2, and 92–94% N2.
# Compounds were dissolved in either water or DMSO and then diluted with medium to achieve the required concentrations (final non-toxic DMSO concentration <1%). Asynchronous cultures of Pf with parasitaemia of 1–1.5% and 1% final hematocrit were aliquoted into 96-well flat-bottom microplates (Corning, Glendale, AZ, USA) with serial dilutions of test compounds and incubated for 72 h at 37 °C. Parasite growth was determined spectrophotometrically (OD650) by measuring the activity of the parasite lactate dehydrogenase (pLDH) according to a modified version of the method of Makler in control and drug-treated cultures.
# P. falciparum D10 (CQ-S) = system: P. falciparum D10 (CQ-S); set-up: method as in PMID 18538567; settings: 72 h incubation, pLDH method, mean of 3 experiments; cited from earlier work
# [7] = system: P. falciparum FCR3 (CQ-R); assay: In vitro antimalarial activity, [3H]-hypoxanthine incorporation (LSHTM); type: cell-based; settings: Plasmodium falciparum
# P. falciparum W2 (CQ-R) = system: P. falciparum W2 (CQ-R); set-up: method as in PMID 18538567; settings: 72 h incubation, pLDH method, mean of 3 experiments; cited from earlier work
# [8] = system: P. falciparum V1-S (CQ-R); assay: In vitro antimalarial activity, [3H]-hypoxanthine incorporation (LSHTM); type: cell-based; settings: Plasmodium falciparum, read-out: P. falciparum IC50 nM, V1-S (CQ-R)
# P. falciparum 3D7 (CQ-S) = assay: as above; type: cell-based; settings: Plasmodium falciparum, 3D7, read-out: P. falciparum IC50 nM, 3D7 (CQ-S)
# P. falciparum K1 (CQ-R) [9] = assay: as above; type: cell-based; settings: Plasmodium falciparum
# [10] = system: P. falciparum TM90C2A (CQ-R); assay: as above; type: cell-based; settings: Plasmodium falciparum, read-out: P. falciparum IC50 nM, TM90C2A (CQ-R)
# P. falciparum K1 (CQ-R) [11] = assay: In vitro combination study (isobologram, ∑FIC); type: cell-based
# P. berghei ANKA [12] = assay: Oral curative activity against P. berghei ANKA; type: in vivo, P. berghei in mice; settings: for Average survival (days) after infection: individual values in brackets
# [13] = system: P. falciparum field isolates; assay: Chemosensitivity assay on field isolates; type: cell-based; settings: Plasmodium falciparum
# Procedure: (§5) The 10 P. vivax and 10 P. falciparum isolates used in this study were obtained from Mae Sod District, Tak Province, Thailand. […] Isolates were collected in 5 mL lithium-heparinized tubes and sent to the laboratory within 5–6 h.
# P. vivax field isolates = assay: Chemosensitivity assay on field isolates; type: cell-based; settings: Plasmodium vivax, read-out: P. vivax IC50 nM, Field Isolates
# Procedure: as §5
# [14] = cited from earlier work
# P. yoelii NS = system: P. yoelii NS; set-up: method as in PMID 19284751; settings: oral 4-day test; cited from earlier work
# P. berghei ANKA [15] = system: P. berghei ANKA; set-up: method as in PMID 19284751; settings: oral 4-day test; cited from earlier work
# mouse hepatocytes = assay: Metabolic profiling in hepatocytes; type: in vitro ADME; settings: 1 h, 10 µM
# Procedure: (§6) For metabolite profiling, MG3.2HCl (10 µM) was incubated with mouse, rat, dog, monkey, and human hepatocytes (300,000 cells/mL for the mouse and 1 × 10^6 cells/mL for the other species) in Leibovitz L-15 medium, at 37 °C. Incubations were performed in a 12-well plate under shaking. Aliquots of the incubation samples, together with a control in medium alone, were taken at t = 0 and 60 min; the metabolism was stopped by the addition of an equal volume of chilled ACN and the samples were centrifuged at 1100 rpm for 20 min. The supernatant was stored at −20 °C until analysis. The analyses were performed using an HPLC system (Agilent) online with a photodiode array (PDA) detector (Agilent) coupled to a Mass Spectrometer Q-TOF 2 (Waters), ESI positive, following the method reported in Table 1.
# (§7) The software utilized for searching the accurate masses of possible metabolites was Metabolynx, version 4.1 (Waters Corporation, Milford, MA, USA), with a mass window of 40 mDa. Samples were then re-run in MS/MS mode by selecting the masses of possible metabolites found. The collision energy used to obtain MS/MS data was 25 eV. The proposed identity of metabolites was based on their accurate mass (using LockSpray correction), with an accuracy of +/−5 mDa. MS/MS analyses were performed to verify that peaks were drug-related and to obtain structural information from the fragment ions formed. The structures of some metabolites are proposed. The approximate relative amounts of parent and metabolites were determined from the absolute areas taken from a selected ion chromatogram at the metabolite masses with a mass window of 0.04 Da.
# rat hepatocytes = assay: Metabolic profiling in hepatocytes; type: in vitro ADME; settings: rat, 60 min, 10 µM
# Procedure: as §6, §7
# human hepatocytes = assay: Metabolic profiling in hepatocytes; type: in vitro ADME; settings: human, 60 min, 10 µM
# Procedure: as §6, §7
# monkey hepatocytes = assay: Metabolic profiling in hepatocytes; type: in vitro ADME; settings: 1 h, 10 µM
# Procedure: as §6, §7
# dog hepatocytes = assay: Metabolic profiling in hepatocytes; type: in vitro ADME; settings: 1 h, 10 µM
# Procedure: as §6, §7
# P. falciparum K1 (CQ-R) [16] = system: P. falciparum K1 (CQ-R); set-up: method as in PMID 17466277; settings: literature value; read-out: IC50 against K1 strain; cited from earlier work
# [17] = FCR3, read-out: P. falciparum IC50 nM, FCR3 (CQ-R)
# [18] = K1, read-out: P. falciparum IC50 nM, K1 (CQ-R)
# [19] = 72 h, [3H]-hypoxanthine incorporation, mean of 3 experiments
smiles,measurement,setting,value
"Nc1ccc2cc3ccccc3cc2c1 [2-aminoanthracene, reference compound]",fold increase value (ratio treated/solvent revertant numbers),[1]; I° Exp.,37.2
same,fold increase value (ratio treated/solvent revertant numbers),[1]; Range finding,26.5
same,fold increase value (ratio treated/solvent revertant numbers),[2]; I° Exp.,5.1
same,fold increase value (ratio treated/solvent revertant numbers),[2]; Range finding,7.7
same,fold increase value (ratio treated/solvent revertant numbers),[3]; I° Exp.,13.0
same,fold increase value (ratio treated/solvent revertant numbers),[3]; Range finding,8.2
"CN(C)c1ccc2nc3ccc(=[N+](C)C)cc-3sc2c1 [Methylene Blue, reference compound]",IC50,"[4]; 3D7, read-out: Pf-3D7 gametocytes IC50 (nM), >95% Stage I-III, luciferase readout, 3D7elo1-pfs16-CBG99",59.6 ± 21.7 nM
same,IC50,[5],145 ± 42.6 nM
"C[C@H]1[C@@H](O)O[C@@H]2O[C@@]3(C)CC[C@H]4[C@H](C)CC[C@@H]1[C@@]24OO3 [DHA, dihydroartemisinin]",IC50,"[6]; read-out: P. falciparum IC50 nM, IPC5202 (ARM-R), 72 h incubation, pLDH method",2.2 nM
same,IC50,P. falciparum D10 (CQ-S),3.9 nM
same,IC50,[7]; [17],1.23 nM
same,IC50,P. falciparum W2 (CQ-R),2 nM
same,IC50,[8],1.8 nM
same,IC50,P. falciparum 3D7 (CQ-S),3 nM
same,IC50,P. falciparum K1 (CQ-R) [9]; [18],1.4 nM
"CCN(CC)CCCC(C)Nc1ccnc2cc(Cl)ccc12 (stereo not drawn) [CQ, chloroquine]",IC50,"[4]; 3D7, read-out: Pf-3D7 gametocytes IC50 (nM), >95% Stage I-III",104 ± 34.7 nM
same,IC50,[5],11700 ± 4120 nM
same,IC50,[10],145 nM
same,IC50,"[6]; read-out: P. falciparum IC50 nM, IPC5202 (ARM-R)",163 nM
same,IC50,P. falciparum D10 (CQ-S),16.5 nM
same,IC50,[7]; [17],194 nM
same,IC50,P. falciparum W2 (CQ-R),294 nM
same,IC50,[8],774 nM
same,Mean ∑FIC50 (95% CI),"P. falciparum K1 (CQ-R) [11]; in combination with ASN, K1, IC50 level",1.67 (1.44 – 1.90)
same,Mean ∑FIC50 (95% CI),"P. falciparum K1 (CQ-R) [11]; in combination with DHA, K1, IC50 level",1.27 (1.16 – 1.38)
same,Mean ∑FIC50 (95% CI),"P. falciparum K1 (CQ-R) [11]; in combination with RKA-182, K1, IC50 level",1.19 (0.77 – 1.60)
same,IC50,P. falciparum 3D7 (CQ-S),12.1 nM
same,% Suppression of parasitaemia (on day 4 post infection),P. berghei ANKA [12]; oral dose 3 x 30 mg/kg,99.84%
same,Average survival (days) after infection,P. berghei ANKA [12]; oral dose 3 x 30 mg/kg,"13 (12, 12, 13, 13, 13) days"
same,IC50,P. falciparum K1 (CQ-R) [9]; [18],708 nM
same,IC50,"[13]; read-out: P. falciparum IC50 nM, Field Isolates, mean of 10 field isolates, Thai Burmese Border",252 nM
same,IC50,P. vivax field isolates,86.6 nM
"CC(C)(C)NCc1ccc(Nc2ccnc3cc(Cl)ccc23)cc1O [NTBI, N-tert-butyl isoquine]",absolute bioavailability,[14]; literature value,68%
"CC(C)(C)NCc1cc(Nc2ccnc3cc(Cl)ccc23)ccc1F [FAQ4, 4′-Fluoro-N-tert-butylamodiaquine]",ED50 (95% CI) Mean,P. yoelii NS,7.70 (6.70–8.90) mg/kg
same,ED90 (95% CI) Mean,P. yoelii NS,10.60 (9.40–11.80) mg/kg
same,ED50 (95% CI) Mean,P. berghei ANKA [15],5.30 (4.10–6.80) mg/kg
same,ED90 (95% CI) Mean,P. berghei ANKA [15],12.40 (10.7–14.4) mg/kg
OC(Nc1ccnc2cc(Cl)ccc12)C12CCCN1CCC2 (stereo not drawn) [M2],% of Total Drug Related Material,mouse hepatocytes,3%
same,% of Total Drug Related Material,rat hepatocytes,6%
same,% of Total Drug Related Material,human hepatocytes,1%
same,% of Total Drug Related Material,monkey hepatocytes,1%
same,% of Total Drug Related Material,dog hepatocytes,27%
Clc1ccc2c(N3CCN(CCCN4CCN(c5ccnc6cc(Cl)ccc56)CC4)CC3)ccnc2c1 [piperaquine],IC50,P. falciparum K1 (CQ-R) [16],49 nM
"CCN(CC)Cc1cc(Nc2ccnc3cc(Cl)ccc23)ccc1O [Amodiaquine, amodiaquine]",% Suppression of parasitaemia (on day 4 post infection),P. berghei ANKA [12]; oral dose 3 x 10 mg/kg,100%
same,Average survival (days) after infection,P. berghei ANKA [12]; oral dose 3 x 10 mg/kg,"11 (9, 11, 11, 12, 13) days"
"C[C@H]1[C@H](OC(=O)CCC(=O)O)O[C@@H]2O[C@@]3(C)CC[C@H]4[C@H](C)CC[C@@H]1[C@@]24OO3 [ASN, artesunate]",IC50,[10]; [19],2.6 nM
same,IC50,"[7]; FCR3, 72 h, [3H]-hypoxanthine incorporation, mean of 3 experiments, read-out: P. falciparum IC50 nM, FCR3 (CQ-R)",2.6 nM
same,IC50,[8]; [19],2.7 nM
same,% Suppression of parasitaemia (on day 4 post infection),P. berghei ANKA [12]; oral dose 3 x 30 mg/kg,99.09%
same,Average survival (days) after infection,P. berghei ANKA [12]; oral dose 3 x 30 mg/kg,"8 (7, 8, 8, 9, 9) days"
same,IC50,"P. falciparum K1 (CQ-R) [9]; K1, 72 h, [3H]-hypoxanthine incorporation, mean of 3 experiments, read-out: P. falciparum IC50 nM, K1 (CQ-R)",2.6 nM
same,IC50,"[13]; mean of 10 field isolates, Thai Burmese Border, read-out: P. falciparum IC50 nM, Field Isolates",4.2 nM
same,IC50,"P. vivax field isolates; mean of 10 field isolates, Thai Burmese Border",2.3 nM
CCN(CC)CCCNc1ccnc2cc(Cl)ccc12 [AQ13],absolute bioavailability,[14]; in vivo,70%
